Measurements as given in patent US9650417B2, “Treatments for gastrointestinal disorders” (Ironwood Pharmaceuticals, Inc., priority 2011, dated 2017).
Bridge positions count the residues as written; N and C are the ends. Square brackets hold non-standard residues; d marks the D form. Peptide text beside a SMILES is read from it. pS = N[C@@H](COP(=O)(O)O)C(=O)O

Experiments:
[1] = In vitro metabolism in mouse jejunum loop fluid; format: in vitro ADME; conditions: for metabolism in control reaction: 120 minute incubation; for degradation rate compared with peptide 2: mouse intestinal fluid
Description: The purpose of this study was to determine the stability of phosphorylated peptides in mouse jejunal loop fluid. […] The isotopically labeled peptide 2 was synthesized with ^13C, ^15N-labeled alanine and leucine (i.e., with a sequence CCpS[^13C6, ^15N]LCCNP[^13C6, ^15N]ACTGC).
Each peptide was synthesized by American Peptide Company, Inc., and was stored desiccated at −20° C. A 1 mg/mL solution for each of the non-labeled peptides was prepared in 1 M tris(hydroxymethyl)aminomethane hydrochloride (Tris-HCl), pH 8 just prior to conducting the mouse intestinal loop fluid assay. A 500 ng/mL solution of ^13C, ^15N-labeled peptide 2 was prepared in 0.1% formic acid in water and was utilized to dilute the jejunum samples for post-assay LC-MS/MS analysis.
To collect the fluid, mice were fasted overnight with full access to water. They were then anesthetized with isofluorane for surgery and subjected to laparotomy in which the small intestine was exteriorized. Jejunum loops of 3 to 4 cm in length were made with sutures starting at 7 cm from the pyloric sphincter of the stomach. Once the loops were formed, they were injected with 200 μL of phosphate buffered saline (PBS) buffer (10 mM, pH 7.4). The abdominal wall and skin of the animals were then sutured, and the animals were allowed to recover for 30 minutes. Following recovery, the animals were sacrificed, the loops were then excised and the fluid inside was recovered and stored at −80° C. until use.
For each peptide, 25 μL of the 1 mg/mL peptide stock solution was added to 25 μL of 1 M Tris-HCl and 25 μL of 10× calf intestinal phosphatase (CIP) buffer containing 500 mM Tris-HCl, 1 M sodium chloride (NaCl), 0.1 mM magnesium chloride (MgCl2), pH 8. The reactions were initiated by adding 175 μL of the mouse jejunum loop fluid or 175 μL of the 1 M Tris-HCl pH8 buffer for the control reactions. The final concentration of each peptide was 100 μg/mL. The reactions were continuously mixed and maintained at 37° C. on a plate shaker. At 0, 2, 5, 10, 20, 30, 60, 90 and 120 minutes after adding the mouse intestinal loop fluid, a 25 μL aliquot was taken and added to 25 μL of 4° C. 12% trichloroacetic acid to stop the reaction. An additional 200 μL of 0.1% formic acid in water was added to these reactions for dilution purposes. These samples were then further diluted by taking 20 μL of each sample and adding it to 480 μL of 0.1% formic acid in water containing 500 ng/mL of the internal standard 13C, 15N-labeled peptide 2.
All samples were analyzed using an Applied Biosystems/MDS SCIEX API 4000 triple quadrupole mass spectrometer equipped with a high-performance liquid chromatography (HPLC) system. The mass spectrometer was operated in multiple reaction monitoring (MRM) mode, with resolution set to 1.2 Da.
The LC-MS/MS data were processed using Analyst version 1.4.2 software (Applied Biosystems/MDS SCIEX). The peak area ratio (ratio of analyte peak area to internal standard peak area) was used to calculate the percent remaining of each peptide.

[2] = target: T1, Calf intestinal alkaline phosphatase (CIP) (Bos taurus, UniProt P19111); test: Alkaline phosphatase reaction (dephosphorylation of peptide substrates); format: in vitro ADME; conditions: with and without calf intestinal alkaline phosphatase; data not shown
T1 construct: purchased New England BioLabs, Ipswich, Mass; MO290S
Description: For the alkaline phosphatase reactions, peptide stocks were prepared at 1 mg/mL in 0.1 M Tris-HCl pH 8, which were stored at −20° C. until assays were conducted. For the acid phosphatase reactions, peptide stocks were prepared at 1 mg/mL in 50 mM sodium phosphate pH 6, which was stored at −20° C. until assays were conducted.
Calf intestinal alkaline phosphatase (CIP) was obtained from New England BioLabs, Ipswich, Mass. Cat # MO290S. The CIP reaction solution was prepared by dilution with buffer (50 mM KCl, 10 mM Tris-HCl pH 8, 1 mM MgCl2, 50% glycerol) to 0.5 units/μL. The alkaline phosphatase reaction solutions were assembled in 20 μL quantities containing:
2 μL 10×CIP buffer (1M NaCl, 500 mM Tris-HCl pH 8, 100 mM MgCl2)
2 μL peptide stock (1 mg/mL)
4 μL alkaline phosphatase (0, 0.5 or 2 units)
The reaction solutions were mixed gently and incubated for 90 minutes at 37° C. These reaction solutions were stored at −20° C. until analysis. For analysis, the reaction solutions were diluted from 7.5 μL of CIP treated peptide to 50 μL with 0.1% formic acid in water to a final concentration of 10 μM.
Control reactions were assembled for enzyme activity containing 10 mM p-nitrophenylphosphate in place of peptide. After incubation, the reactions were diluted with 0.1 mL of 100 mM borate buffer pH 9 and read at the absorbance of 405 nm to monitor p-nitrophenol appearance.

GC-C = target: T2, GC-C (Homo sapiens, UniProt P25092); test: cGMP accumulation in T84 cells for analysis of GC-C activity; format: cell-based
T2 construct: endogenous in cells; host or cells: T84 cells
Description: For the cGMP assay, 4.5×10^5 cells/mL of T84 cells were grown overnight in 24 well tissue culture plates. […] After the second wash, the cells were incubated with 450 μL of 1 mM isobutylmethylxanthine (IBMX) in either the pH 5 or pH 8 buffers for 10 minutes at 37° C. to inhibit any phosphodiesterase activity. The peptides were then diluted in either pH 5 or pH 8 buffer to a 10× concentration. The peptide solution of 50 μL was diluted to a final volume of 500 μL with the T84 cells, bringing each peptide concentration to 1×. An eleven point curve analysis was conducted for each peptide, with final peptide concentrations tested in each assay, in nM: 10000, 3000, 1000, 300, 100, 30, 10, 3, 1, 0.3, 0.1.
There was no peptide control used to determine endogenous levels of cGMP. Peptides were incubated for 30 minutes at 37° C. After 30 minutes, the supernatants were removed and the cells were lysed with 0.1 M HCl. The cells were lysed for 30 minutes on ice. After 30 minutes, lysates were pipetted off and placed into a 96 well HPLC plate and spun at 10,000×g for 10 minutes to remove any cell debris. […]
cGMP concentrations were determined from each sample using the LC/MS conditions in Table 4 and a calculated standard curve. EC50 values were calculated from concentration-response curves generated with GraphPad Prism Software. […]

[3] = oral administration at therapeutic dose levels; cited from earlier work
[4] = control reaction (1 M Tris-HCl) at 37° C.

T1 sequence (P19111 20-506): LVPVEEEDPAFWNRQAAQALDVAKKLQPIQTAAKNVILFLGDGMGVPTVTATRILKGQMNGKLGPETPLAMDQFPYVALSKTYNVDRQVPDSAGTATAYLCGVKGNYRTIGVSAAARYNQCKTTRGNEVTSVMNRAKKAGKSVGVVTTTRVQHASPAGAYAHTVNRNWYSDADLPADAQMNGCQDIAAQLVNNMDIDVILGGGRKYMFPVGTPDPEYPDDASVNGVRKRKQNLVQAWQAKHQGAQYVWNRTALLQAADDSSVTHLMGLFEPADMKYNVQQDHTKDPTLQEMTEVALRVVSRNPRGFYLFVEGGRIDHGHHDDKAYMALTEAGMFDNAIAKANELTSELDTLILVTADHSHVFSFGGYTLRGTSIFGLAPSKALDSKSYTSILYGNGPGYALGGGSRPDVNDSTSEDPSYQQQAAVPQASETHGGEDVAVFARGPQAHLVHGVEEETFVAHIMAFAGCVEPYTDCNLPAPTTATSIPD
T2 sequence (P25092 24-1073): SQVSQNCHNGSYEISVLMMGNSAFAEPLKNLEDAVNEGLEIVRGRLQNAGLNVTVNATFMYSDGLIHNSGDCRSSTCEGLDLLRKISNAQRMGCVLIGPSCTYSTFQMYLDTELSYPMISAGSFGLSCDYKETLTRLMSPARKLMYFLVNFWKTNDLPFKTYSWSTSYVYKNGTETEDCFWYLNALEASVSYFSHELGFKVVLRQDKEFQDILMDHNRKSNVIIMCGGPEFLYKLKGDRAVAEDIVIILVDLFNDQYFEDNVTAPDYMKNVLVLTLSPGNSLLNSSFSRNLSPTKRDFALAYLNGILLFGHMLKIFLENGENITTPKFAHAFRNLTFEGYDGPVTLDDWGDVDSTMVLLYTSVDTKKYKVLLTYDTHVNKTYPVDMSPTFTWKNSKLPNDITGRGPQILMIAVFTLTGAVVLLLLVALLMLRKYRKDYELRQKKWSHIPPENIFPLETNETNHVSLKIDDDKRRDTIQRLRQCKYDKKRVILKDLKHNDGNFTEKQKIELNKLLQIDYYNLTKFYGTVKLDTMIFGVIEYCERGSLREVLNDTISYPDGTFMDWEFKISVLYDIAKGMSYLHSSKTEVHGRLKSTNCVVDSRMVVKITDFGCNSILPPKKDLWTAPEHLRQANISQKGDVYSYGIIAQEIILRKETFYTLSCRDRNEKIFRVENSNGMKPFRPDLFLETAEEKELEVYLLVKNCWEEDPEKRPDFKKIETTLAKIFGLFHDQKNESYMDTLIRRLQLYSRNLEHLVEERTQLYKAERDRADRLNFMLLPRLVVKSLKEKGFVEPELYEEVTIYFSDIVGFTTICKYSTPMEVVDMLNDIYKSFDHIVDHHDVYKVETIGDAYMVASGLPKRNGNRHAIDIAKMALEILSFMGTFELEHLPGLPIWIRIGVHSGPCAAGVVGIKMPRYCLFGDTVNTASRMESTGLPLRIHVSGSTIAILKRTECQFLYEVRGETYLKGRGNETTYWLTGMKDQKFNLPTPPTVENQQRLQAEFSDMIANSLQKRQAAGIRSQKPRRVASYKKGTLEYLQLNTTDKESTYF

| SMILES | metabolism in control reaction [1, 4] | degradation rate compared with peptide 2 [1] | further results |
| --- | --- | --- | --- |
| CC(C)C[C@@H]1NC(=O)[C@H](CO)NC(=O)[C@@H]2CSSC[C@@H]3NC(=O)[C@H](C)NC(=O)[C@@H]4CCCN4C(=O)[C@H](CC(N)=O)NC(=O)[C@H](CSSC[C@H](N)C(=O)N2)NC(=O)[C@H](CSSC[C@@H](C(=O)O)NC(=O)CNC(=O)[C@H]([C@@H](C)O)NC3=O)NC1=O [Dephospho-Peptide 2, CCSLCCNPACTGC] (H-CCSLCCNPACTGC-OH; disulfide 1-6, 2-10, 5-13 (inferred); N-terminus and C-terminus assumed) | not metabolized | degraded faster | – |
| CC(C)C[C@@H]1NC(=O)[C@H](COP(=O)(O)O)NC(=O)[C@@H]2CSSC[C@@H]3NC(=O)[C@H](C)NC(=O)[C@@H]4CCCN4C(=O)[C@H](CC(N)=O)NC(=O)[C@H](CSSC[C@H](N)C(=O)N2)NC(=O)[C@H](CSSC[C@@H](C(=O)O)NC(=O)CNC(=O)[C@H]([C@@H](C)O)NC3=O)NC1=O [Peptide 2, CCpSLCCNPACTGC] (H-CC[pS]LCCNPACTGC-OH; disulfide 1-6, 2-10, 5-13 (inferred); N-terminus and C-terminus assumed) | not metabolized | – | formation of metabolite dephospho-peptide 2 in control reaction [1, 4]: no dephospho-peptide 2 was formed |
| CC(C)C[C@@H]1NC(=O)[C@H](CCC(=O)O)NC(=O)[C@@H]2CSSC[C@@H]3NC(=O)[C@H](C)NC(=O)[C@@H]4CCCN4C(=O)[C@H](CC(N)=O)NC(=O)[C@H](CSSC[C@H](N)C(=O)N2)NC(=O)[C@H](CSSC[C@@H](C(=O)N[C@@H](Cc2ccc(O)cc2)C(=O)O)NC(=O)CNC(=O)[C@H]([C@@H](C)O)NC3=O)NC1=O [Peptide 3, CCELCCNPACTGCY] (H-CCELCCNPACTGCY-OH; disulfide 1-6, 2-10, 5-13 (inferred); N-terminus and C-terminus assumed) | not metabolized | degraded faster | effect of CIP treatment (LC-MS) [2]: not affected; detection of peptide in mouse jejunum fluid ([1]; after 90 minutes, 37° C., 100 μg/mL): not detected |
| CC(C)C[C@@H]1NC(=O)[C@H](COP(=O)(O)O)NC(=O)[C@@H]2CSSC[C@@H]3NC(=O)[C@H](C)NC(=O)[C@@H]4CCCN4C(=O)[C@H](CC(N)=O)NC(=O)[C@H](CSSC[C@H](NC(=O)[C@H](CC(=O)O)NC(=O)[C@@H](N)CC(=O)O)C(=O)N2)NC(=O)[C@H](CSSC[C@@H](C(=O)N[C@@H](Cc2ccc(O)cc2)C(=O)O)NC(=O)CNC(=O)[C@H]([C@@H](C)O)NC3=O)NC1=O [Peptide 5, DDCCpSLCCNPACTGCY] (H-DDCC[pS]LCCNPACTGCY-OH; disulfide 3-8, 4-12, 7-15 (inferred); N-terminus and C-terminus assumed) | – | – | EC50 (GC-C): 14.7 nM |
| C[C@@H]1NC(=O)[C@@H]2CCCN2C(=O)[C@H](CC(N)=O)NC(=O)[C@@H]2CSSC[C@H](N)C(=O)N[C@H]3CSSC[C@H](NC1=O)C(=O)N[C@@H]([C@@H](C)O)C(=O)NCC(=O)N[C@H](C(=O)N[C@@H](Cc1ccc(O)cc1)C(=O)O)CSSC[C@H](NC(=O)[C@H](Cc1ccc(O)cc1)NC(=O)[C@H](CCC(=O)O)NC3=O)C(=O)N2 [linaclotide, Linaclotide] (H-CCEYCCNPACTGCY-OH; disulfide 1-6, 2-10, 5-13) | – | – | systemic levels after oral administration [3]: no detectable levels |
